Test system: AND1 PSC
Experiment: Megakaryocyte precursor analysis (CD34+ and CD34+CD41a+) in EBs by flow cytometry
Type: cell-based, human
Conditions: wild-type AND1 PSCs, TSA 10 and 100 nM from start, day 14, vs DMSO
Experimental: The emergence of megakaryocyte precursor cells (CD34+ and CD34+ CD41a^+) during EB differentiation stages on days 10, 14 and 17 of differentiation was evaluated. One third of the EBs growing in a 6-well plate were collected and washed once with PBS. Similarly, to evaluate the effect of Trichostatin A (TSA) on differentiation, the EBs were treated with 10 nM or 100 nM of DMSO or TSA for 14 days. In both cases, the EBs were disassociated with collagenase B and disassociation buffer as described previously. A homogenous cell suspension was obtained after washing the EBs with PBS and being carefully resuspended in […] of PBS with 2% FCS and 2 mM of EDTA until no clumps were observed. The disassociated cells were stained with anti-CD34-PECy7 antibodies (Miltenyi Biotec,
Bergisch Gladbach, Germany) and anti-CD41 a-PE antibodies and 7AAD. Living cells identified by 7AAD exclusion were analyzed using a FACSCanto II flow cytometer.

CC(/C=C/C(=O)NO)=C\[C@@H](C)C(=O)c1ccc(N(C)C)cc1 [Trichostatin A]
CD34+ CD41+ megakaryocyte progenitors: accelerates the emergence of megakaryocyte progenitors | CD34+ CD41+ megakaryocyte progenitors (listed as TSA): increase
